Results published in patent US9162991B2 (University of Ottawa, priority 2007, dated 2015).
Entries after “also recorded” stand apart in the source; their conditions may differ. Read-outs that look alike come from different tables or passages of the source.

Assays:
[1] = test system: tissue transglutaminase (TG2); experiment: Cytochrome c (cytC) promoter/luciferase reporter assay in CHO cells; format: cell-based, Chinese Hamster; conditions: 100 μM, CHO cells incubated 12 hours, luminescence of cell lysate
Source text: IN VITRO STUDIES FOR COMPOUND 15a: A cytochrome c (cytC) promoter/luciferase reporter assay (illustrated in FIG. 6) was used to assess tissue transglutaminase (TG2) activity for compound 15a. In the absence of TG2, transcription factors bind to the cytC promoter region of the luciferase gene, and the level of expressed luciferase is detected from the luminescence of the Chinese Hamster Ovary (CHO) cell lysate (A). The level of effective cytC promoter is sensitive to endogenous TG2 co-expressed in CHO cells. High TG2 expression results in low promoter activity, presumably because the transcription factors that bind to the cytC promoter have Gln-rich sequences that are modified by TG2-mediated hydrolysis or transamidation (B). In the presence of TG2 inhibitors, TG2-induced silencing of the promoter is repressed and luciferase is detected in the lysate once more (C). In this assay, CHO cells are incubated in the presence of the inhibitor compound for 12 hours, after which the luminescence of cell lysate is measured, as an indication of the level of TG2 inhibition.

[2] = biological target: recombinant guinea pig liver TGase (Cavia cutleri (Guinea pig), UniProt P08587); experiment: biochemical; format: biochemical
recombinant guinea pig liver TGase, sequence (P08587 whole entry): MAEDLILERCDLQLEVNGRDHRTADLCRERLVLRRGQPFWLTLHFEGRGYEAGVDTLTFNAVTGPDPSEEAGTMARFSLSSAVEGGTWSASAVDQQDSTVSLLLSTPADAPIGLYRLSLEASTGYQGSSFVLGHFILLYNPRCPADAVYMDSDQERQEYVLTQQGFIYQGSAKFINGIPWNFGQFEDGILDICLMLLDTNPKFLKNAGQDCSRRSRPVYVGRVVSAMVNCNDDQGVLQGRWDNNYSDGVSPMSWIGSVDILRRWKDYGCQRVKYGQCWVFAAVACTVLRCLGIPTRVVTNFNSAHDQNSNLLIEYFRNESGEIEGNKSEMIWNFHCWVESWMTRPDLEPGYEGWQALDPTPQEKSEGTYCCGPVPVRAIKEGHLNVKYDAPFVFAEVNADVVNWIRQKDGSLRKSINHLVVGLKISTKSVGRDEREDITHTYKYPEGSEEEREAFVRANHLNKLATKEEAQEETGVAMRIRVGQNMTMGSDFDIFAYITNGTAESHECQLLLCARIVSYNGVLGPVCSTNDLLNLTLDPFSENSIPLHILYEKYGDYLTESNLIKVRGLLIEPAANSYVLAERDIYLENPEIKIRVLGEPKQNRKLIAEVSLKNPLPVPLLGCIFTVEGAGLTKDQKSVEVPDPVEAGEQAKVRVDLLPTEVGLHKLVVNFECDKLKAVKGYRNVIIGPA
Description: ENZYME INHIBITION BY COMPOUNDS 14a-c, 14l, 15a, 15d-k, 15m-q, 30a, 30r, 30t, 37a and 38a: For enzymology studies of these compounds, recombinant guinea pig liver TGase was expressed in Escherichia coli and effectively purified (Gillet, S. M. F. G. et al J. N., Prot. Exp. & Purif. 2004, 33, 256).
The mode of inhibition was determined for the representative lead compound 14a through non-linear regression of initial rate data to the Michaelis-Menten equation (FIG. 1).
For the ensuing enzymatic tests, recombinant guinea pig liver TGase was expressed in E. Coli and effectively purified.
Kinetic runs were recorded on a Cary 100 BIO UV-Visible spectrophotometer at 405 nm and 25° C., in a buffer composed of 50 mM CaCl2, 50 μM EDTA and 0.1 M MOPS (pH 7.0). All aqueous solutions were prepared using de-ionized water purified from the Millipore BioCell system. […] Factor XIIIa activity was measured using a coupled-enzyme assay (Day, N.; Keillor, J. W. Anal. Biochem. 1999, 274, 141). Factor XIIIa, was added to a final concentration of 0.89 μg/mL to a pH 8.5 solution (0.1 M Tris-HCl, 5 mM CaCl2 and 10 mM DDT) of 0.5 mM β-NADH, 3.3 mM Na-acetyl-L-lysine methyl ester, 10 mM α-ketoglutaric acid sodium salt and 297 μg/mL glutamate dehydrogenase (GDH).

human caspase 3 = human caspase 3 (Homo sapiens (Human), UniProt P42574); experiment: Caspase 3 activity, release of p-nitroaniline from Ac-Asp-Glu-Val-Asp-pNA; format: biochemical
human caspase 3, sequence (P42574 29-175): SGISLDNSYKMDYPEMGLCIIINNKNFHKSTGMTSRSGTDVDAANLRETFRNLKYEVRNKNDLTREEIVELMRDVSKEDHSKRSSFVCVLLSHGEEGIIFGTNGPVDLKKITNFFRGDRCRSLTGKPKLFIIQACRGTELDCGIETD
human caspase 3, sequence (P42574 176-277): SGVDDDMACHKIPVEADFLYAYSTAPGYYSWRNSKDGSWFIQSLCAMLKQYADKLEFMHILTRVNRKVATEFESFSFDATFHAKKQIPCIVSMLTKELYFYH
Source text: To examine the enzyme selectivity of this new family of TG2 inhibitors, several representative compounds (14a, 15p, 18a, 28a and 30a) were further tested as inhibitors of related enzymes. For these studies, Factor XIIIa was chosen because it is a member of the family of transglutaminase enzymes and its inhibition in vivo may lead to compromised coagulation and toxicity. Caspase 3 was also chosen because as a cysteine protease, its acyl transfer mechanism is phenomenologically similar to that of TGase. At concentrations approaching the limits of their solubility, most of those compounds had no discernable effect on the activities of either of these enzymes (data not shown). […] This selectivity bodes well for in vivo application.
The subsequent absorbance decrease was followed at 340 nm at 37° C. Caspase 3 activity was measured by monitoring the release of p-nitroaniline (pNA) (λabs=405 nm) from the peptidic substrate Ac-Asp-Glu-Val-Asp-pNA (20 μM) catalyzed by human caspase 3 (Sigma, 250 ng/mL) at pH 7.4 (18.6 mM HEPES, 1.9 mM EDTA, 0.09% CHAPS and 4.7 mM DTT).

[3] = Table 1, substituent on the cinnamoyl aromatic group, read-out: IC50 (μM), class symbol
[4] = Table 1, value in brackets, read-out: IC50
[5] = Table 2, influence of the cinnamoyl double bond, read-out: IC50 (μM), class symbol
[6] = Table 2, value in brackets or words, read-out: IC50
[7] = Table 3, influence of the acylated moiety, read-out: IC50 (μM), class symbol

Compound: O=C(/C=C/c1ccc([N+](=O)[O-])cc1)n1nnc2ccccc21 [Compound 15a, p-Nitrocinnamoyl benzotriazolyl amide]
- inhibition of TG2-mediated silencing of cytC promoter [1]: complete inhibition
- TGase inhibitory activity (in words) [2]: Inhibitory activity was observed
- IC50 [2, 3]: > 50 µM
- IC50 [2, 4]: 74 µM
- IC50 [2, 5]: > 50 µM
- IC50 [2, 6]: 74 µM
- IC50 [2, 7]: > 50 µM

Compound: O=C(/C=C/c1ccc([N+](=O)[O-])cc1)c1cc2ccccc2oc1=O [Compound 28a, 3-((E)-3-(4-Nitrophenyl)acryloyl)-2H-chromen-2-one]
- IC50 [2, 7]: 20 to 50 µM
- IC50 ([2]; Table 3, value in brackets, read-out: IC50): 48 µM
- IC50 ([2]; read-out: IC50): 48 µM
- inhibition at 6 µM (human caspase 3; at 6 μM): 28%
- effect on caspase 3 activity (human caspase 3; at concentrations approaching the limits of solubility): slight inhibitory activity

Compound: O=C(/C=C/C=C/c1ccc([N+](=O)[O-])cc1)c1cccnc1 [Compound 38a, (2E,4E)-5-(4-Nitrophenyl)-1-(pyridine-3-yl)penta-2,4-dien-1-one]
- TGase inhibitory activity (in words) [2]: Neither of these two extended conjugated compounds showed significant inhibition

Compound: COc1ccc(/C=C/C(=O)n2nnc3ccccc32)cc1 [Compound 15d, p-Methoxycinnamoyl benzotriazolyl amide]
- IC50 [2, 3]: > 50 µM
- IC50 [2, 4]: > 100 µM

Compound: COC(=O)c1ccc(/C=C/C(=O)n2nnc3ccccc32)cc1 [Compound 15q, p-(Methoxycarbonyl)cinnamoyl benzotriazolyl amide]
- IC50 [2, 3]: 20 to 50 µM
- IC50 [2, 4]: 27 µM

Compound: O=C(OCc1ccc([N+](=O)[O-])cc1)n1nnc2ccccc21 [Compound 32a, p-Nitrobenzyloxycarbonylbenzotriazole]
- TGase inhibitory activity (in words) [2]: significant loss of activity
- IC50 [2, 5]: > 50 µM
- IC50 [2, 6]: > 200 µM

Compound: O=C(/C=C/C=C/c1ccc([N+](=O)[O-])cc1)n1nnc2ccccc21 [Compound 37a, (2E,4E)-5-(4-Nitrophenyl)penta-2-4-dienoyl benzotriazolyl amide]
- TGase inhibitory activity (in words) [2]: Neither of these two extended conjugated compounds showed significant inhibition
- IC50 [2, 5]: > 50 µM
- IC50 [2, 6]: > 200 µM

Compound: O=C(c1ccc([N+](=O)[O-])cc1)n1nnc2ccccc21 [Compound 34a, p-Nitrobenzoyl benzotriazolyl amide]
- IC50 (μM) ([2]; Table 2, value in brackets or words): irreversible
- mode of inhibition ([2]; versus acyl-donor substrate): irreversible inhibitor

Compound: O=C(/C=C/c1ccc([N+](=O)[O-])cc1)c1cn(Cc2cnn[nH]2)nn1 [Compound 4m, (E)-1-(1-((3H-1,2,3-triazol-4-yl)methyl)-1H-1,2,3-triazol-4-yl)-3-(4-nitrophenyl)prop-2-en-1-one]
- IC50 [2]: 20 to 50 µM
- TGase inhibitory activity (in words) [2]: relatively higher IC50 value; also recorded: high IC50
- IC50 ([2]; read-out: IC50): 33 µM

Compound: O=C(/C=C/c1ccc([N+](=O)[O-])cc1)c1cn(C(c2ccccc2)c2ccccc2)nn1 [Compound 4l, (E)-1-(1-benzhydryl-1H-1,2,3-triazol-4-yl)-3-(4-nitrophenyl)prop-2-en-1-one]
- IC50 [2]: > 50 µM
- TGase inhibitory activity (in words) [2]: relatively poor activity
- IC50 ([2]; read-out: IC50): > 100 µM

Compound: O=C(/C=C/c1ccc([N+](=O)[O-])cc1)c1cn(C2CCCC2)nn1 [Compound 4c, (E)-1-(1-cyclopentyl-1H-1,2,3-triazol-4-yl)-3-(4-nitrophenyl)prop-2-en-1-one]
- IC50 [2]: > 50 µM
- TGase inhibitory activity (in words) [2]: relatively poor activity
- IC50 ([2]; read-out: IC50): > 100 µM

Compound: O=C(/C=C/c1ccc([N+](=O)[O-])cc1)c1cn(Cc2ccccc2[N+](=O)[O-])nn1 [Compound 4h, (E)-1-(1-(2-nitrobenzyl)-1H-1,2,3-triazol-4-yl)-3-(4-nitrophenyl)prop-2-en-1-one]
- reduction in potency (fold) [2]: 4-7 fold
- IC50 ([2]; IC50 (μM), Table 6, value in brackets): 10.7 µM
- IC50 ([2]; IC50 (μM), class symbol, Table 6, Huisgen [3+2] cycloaddition products): < 20 µM

Compound: CC(c1ccccc1)n1cc(C(=O)/C=C/c2ccc([N+](=O)[O-])cc2)nn1 (centres unmarked) [Compound 4k, (E)-3-(4-nitrophenyl)-1-(1-(1-phenylethyl)-1H-1,2,3-triazol-4-yl)prop-2-en-1-one]
- IC50 [2]: < 20 µM
- loss in potency (fold) [2]: 4 fold
- IC50 ([2]; read-out: IC50): 17 µM

Compound: O=C(/C=C/c1ccc([N+](=O)[O-])cc1)c1cn(CC2CCCCC2)nn1 [Compound 4f, (E)-1-(1-(cyclohexylmethyl)-1H-1,2,3-triazol-4-yl)-3-(4-nitrophenyl)prop-2-en-1-one]
- IC50 [2]: < 20 µM
- loss in potency (fold) [2]: 2.5 fold
- IC50 ([2]; read-out: IC50): 11 µM

Compound: O=C(/C=C/c1ccc([N+](=O)[O-])cc1)OCc1ccccc1 [Compound 19a, p-Nitrocinnamoyl benzyl ester]
- TGase inhibitory activity (in words) [2]: little inhibitory activity
- IC50 [2, 7]: > 50 µM

Compound: O=C(/C=C/c1ccccc1Cl)n1nnc2ccccc21 [Compound 15m, o-Chlorocinnamoyl benzotriazolyl amide]
- IC50 [2, 3]: > 50 µM
- IC50 [2, 4]: > 100 µM
